According to patent US20190375778A1, “ADENOSINE DERIVATIVES FOR USE IN THE TREATMENT OF CANCER” (NuCana plc, priority 2016, published 2019):

How the values were obtained:
PC3 = experiment: MTT cytotoxicity assay, PC3; assay type: cell-based; details: Homo sapiens, PC-3, 96 h compound exposure, read-out: absolute IC50, PC3
Text: (§1) Lovo: cell line derived from a metastatic site in a patient with colon cancer MCF7: human oestrogen sensitive mammary epithelial cell line PC3: human prostate cancer cell line A549: cancerous lung tissue derived cells L1210: lymphoblast cell line derived from a mouse with lymphocytic leukaemia FM3A: mammary carcinoma murine cells CEM: human T-lymphoblasts, derived from the blood of a patient with acute lymphoblastic leukaemia HeLa: epithelial cells from a patient with cervical adenocarcinoma
(§2) Anti-tumour evaluation in MCF7, LoVo, A549 and PC3 cell lines was performed by MTT assay. Compounds were prepared as 0.1-100 mM stock solutions dissolved in DMSO and stored at −20° C. Cells were seeded into 96-well microtitre plates at a density of 5×10^3 cells per well and allowed 24 hours to adhere. Decimal compound dilutions were prepared in medium immediately prior to each assay (final concentration 0.1-100 μM). Experimental medium was DMEM+10% FCS (PC3 and Lovo) or RPMI+10% heat inactivated FCS (A549 and MCF7). Following 96 h compound exposure at 37° C., 5% CO2, MTT reagent (Sigma Aldrich) was added to each well (final concentration 0.5 mg/ml). Incubation at 37° C. for 4 h allowed reduction of MTT by viable cells to an insoluble formazan product. MTT was removed and formazan solubilised by addition of 10% Triton X-100 in PBS. Absorbance was read on a Tecan Sunrise spectrophotometer at 540 nm as a measure of cell viability; thus inhibition relative to control was determined (IC50).

FM3A = experiment: Cytotoxicity, FM3A; assay type: cell-based, murine; details: Mus musculus, read-out: absolute IC50, FM3A
Text: as §1

human T-lymphocyte CEM = experiment: Cell proliferation (Coulter count) assay, CEM; assay type: cell-based; details: 72 h, read-out: absolute IC50, CEM
Text: as §1
(§3) Murine leukemia L1210, human T-lymphocyte CEM, and human cervix carcinoma HeLa cells were obtained from the American Type Culture Collection (ATCC) (Rockville, Md.). All cells were maintained in Dulbecco's modified Eagle's medium (DMEM) (Invitrogen, Carlsbad, Calif.) with 10% fetal bovine serum (FBS) (Biochrom AG, Berlin, Germany), 10 mM Hepes, and 1 mM sodiumpyruvate (Invitrogen). Cells were grown at 37° C. in a humidified incubator with a gas phase of 5% CO2. Monolayer cells (HeLa and […]) were seeded in 96-well microtiter plates (Nunc, Roskilde, Denmark) at 10 000 cells/well. After 24 h, an equal volume of fresh medium containing the test compounds was added. On day 5, cells were trypsinized and counted in a Coulter counter (Analis, Suarlee, Belgium). Suspension cells (L1210, CEM) were seeded in 96-well microtiter plates (Nunc) at 60 000 cells/well in the presence of a given amount of the test compounds. The cells were allowed to proliferate for 48 h (L1210) or 72 h (CEM) and were then counted in a Coulter counter. The 50% inhibitory concentration (IC50) was defined as the compound concentration required to reduce cell proliferation by 50%. The cytostatic activity of the compounds was determined after 3 days, as outlined above.

A549 = experiment: MTT cytotoxicity assay, A549; assay type: cell-based; details: Homo sapiens, 96 h compound exposure, read-out: absolute IC50, A549
Text: as §1, §2

Murine leukemia L1210 = experiment: Cell proliferation (Coulter count) assay, L1210; assay type: cell-based; details: Mus musculus, 48 h, read-out: absolute IC50, L1210
Text: as §1, §3

[1] = tested on: human cervix carcinoma HeLa cells; experiment: Cell proliferation (Coulter count) assay, HeLa; assay type: cell-based; details: 120 h, cell count on day 5, read-out: absolute IC50, HeLa
Text: as §1, §3

MCF7 = experiment: MTT cytotoxicity assay, MCF7; assay type: cell-based; details: Homo sapiens, 96 h compound exposure, read-out: absolute IC50, MCF7
Text: as §1, §2

Lovo = experiment: MTT cytotoxicity assay, Lovo; assay type: cell-based; details: Homo sapiens, 96 h compound exposure, read-out: absolute IC50, Lovo
Text: as §1, §2

[2] = tested on: KG1a leukaemic stem cell compartment (Lin−/CD34+/CD38−/CD123+); experiment: Leukaemic stem cell compartment in KG1a; assay type: cell-based
Method: (§4) A further comparative analysis of the toxicity of compounds in the KG1a cell line over an extended dose range was carried out, and the relative effect assessed of the compounds on the leukaemic stem cell compartment within the KG1a cell line, across the entire dose range. Thus, experimental tests were performed on certain compounds of the present invention to assess their ability to target cancer stem cells in a leukaemic cell line. The acute myeloid leukaemia (AML) cell line, KG1a, was employed to assess the relative effect of compounds on the stem cell compartment. The KG1a cell line was selected because it manifests a minor stem cell-like compartment with a distinct immunophenotype (Lin^−/CD34^+/CD38^−/CD123^+).
(§5) Cells of the KG1a cell line were maintained in RPMI medium (Invitrogen, Paisley, UK) supplemented with 100 units/ml penicillin, 100 μg/ml streptomycin and 20% foetal calf serum. Cells were subsequently aliquoted (10^5 cells/100 μl) into 96-well plates and were incubated at 37° C. in a humidified 5% carbon dioxide atmosphere for 72 hrs in the presence of nucleoside analogues and their respective nucleotide analogues (known as ProTides) at concentrations that were experimentally determined for each series of compounds. In addition, control cultures were carried out to which no drug was added. Cells were subsequently harvested by centrifugation and were analyzed by flow cytometry using the Annexin V assay.
KG1a cells were cultured for 72 hrs in the presence of a wide range of concentrations of each compound assayed. Cells were then harvested and labelled with a cocktail of anti-lineage antibodies (PE-cy7), anti-CD34 (FITC), anti-CD38 (PE) and anti-CD123 (PERCP cy5). The sub-population expressing a leukaemic stem cell (LSC) phenotype were subsequently identified and were expressed as a percentage of all viable cells left in the culture. The percentages of stem cells remaining were then plotted on a dose-response graph and the effects of the compounds were compared with 8-chloroadenosine.
(§6) The data obtained in these experiments were evaluated using one way ANOVA. All data was confirmed as Gaussian or a Gaussian approximation using the omnibus K2 test. LD50 values were calculated from the non-linear regression and line of best-fit analysis of the sigmoidal dose-response curves. All statistical analyses were performed using Graphpad Prism 6.0 software (Graphpad Software Inc., San Diego, Calif.).

KG1a cell line = experiment: Annexin V/propidium iodide cytotoxicity, KG1a unsorted; assay type: cell-based
Method: as §4, §5
Cultured cells were harvested by centrifugation and then resuspended in 195 μl of calcium-rich buffer. Subsequently, 5 μl of Annexin V (Caltag Medsystems, Botolph Claydon, UK) was added to the cell suspension and cells were incubated in the dark for 10 mins prior to washing. Cells were finally resuspended in 190 μl of calcium-rich buffer together with 10 μl of propidium iodide. Apoptosis was assessed by dual-colour immunofluorescent flow cytometry as described previously. Subsequently LD50 values (the dose required to kill 50% of the cells in a culture) were calculated for each nucleoside analogue and ProTide.
as §6

SMILES	IC50 (PC3) [µM]	IC50 (FM3A) [µM]	IC50 (human T-lymphocyte CEM) [µM]	IC50 (A549) [µM]	IC50 (Murine leukemia L1210) [µM]	IC50 [1] [µM]	IC50 (MCF7) [µM]	IC50 (Lovo) [µM]	targeting of leukaemic/cancer stem cells in words ([2]; KG1a, compared to 8-chloroadenosine (FIG. 2, FIG. 8))	cytotoxic potency compared in words (KG1a cell line; KG1a, versus 8-chloroadenosine or other isomers (FIG. 1, FIG. 7))	Change relative to control (%) ([2]; % LSC compartment versus the series' control)	KG-1a (CD34+/CD38−/CD123+) % compartment ([2]; LSC as percentage of viable cells left, 72 hrs) [%]	LD50 (KG1a cell line; Homo sapiens, KG-1a, Annexin V/propidium iodide, 72 hrs) [nM]
CC(C)OC(=O)[C@H](C)NP(=O)(OC[C@H]1O[C@@H](n2c(Cl)nc3c(N)ncnc32)C(O)C1O)Oc1ccccc1 (stereo partly drawn) [W, 5′-([(Isopropyloxy-L-alanin-N-yl)-phenyl]-phosphatyl) 8-chloroadenosine]	0.1 to 5	15 to 100	15 to 100	15 to 100	15 to 100	15 to 100	15 to 100	0.1 to 5	–	–	–	–	–
C[C@H](NP(=O)(OC[C@H]1O[C@@H](n2c(Cl)nc3c(N)ncnc32)[C@H](O)[C@@H]1O)Oc1cccc2ccccc12)C(=O)OCc1ccccc1 (single isomer, unassigned) [Isomer A of Compound D]	–	–	–	–	–	–	–	–	statistically significantly increased ability to target cancer stem cells	significantly more potent	–	–	–
COC(=O)[C@H](CCSC)NP(=O)(OC[C@H]1O[C@@H](n2c(Cl)nc3c(N)ncnc32)C(O)C1O)Oc1ccccc1 (stereo partly drawn) [Z, 5′-([(Methyloxy-L-methionine-N-yl)phenyl]-phosphatyl) 8-chloroadenosine]	15 to 100	> 100	15 to 100	> 100	15 to 100	15 to 100	15 to 100	15 to 100	–	–	–	–	–
C[C@H](NP(=O)(OC[C@H]1O[C@@H](n2cnc3c(N)nc(Cl)nc32)CC1O)Oc1cccc2ccccc12)C(=O)OCc1ccccc1 (stereo partly drawn) [Comparative compound 2]	–	–	–	–	–	–	–	–	–	–	−0.5	3.5	820
